Tested on: lymphoma cell line U937
Assay: In vitro survival assay (MTT) for anti-lymphoma effects
Type: cell-based
Details: Homo sapiens, U-937, U937 cells, 48 hours treatment, read-out: IC50 (half inhibition concentration), survival of lymphoma cells
Experimental: Inhibiting effects of lymphoma cells by cyclohexenone compounds of Antrodia camphorata from example 1 were assessed according to the anticancer-drug screening model of National Cancer Institute (NCI). The compound 4-hydroxy-2,3-dimethoxy-6-methyl-5-(3,7,11-trimethyl-dodeca-2,6,10-trienyl)-cyclohex-2-enone from example 1 was added into the culture media of lymphoma cell line U937 to determine the survival rates. Survival of cell was analyzed using MTT assay. U937 cell line was a human histiocytic lymphoma cell line.
MTT assay is commonly used to analyze cell proliferation, survival rate of viable cells and cytotoxicity. MTT (3[4,5-dimethylthiazol-2-yl]-2,5-diphenyltetrazolium bromide) is a yellow dye which can be converted to water-insoluble purple formazan on the reductive cleavage of its tetrazolium ring by the succinate tetrazolium reductase in mitochondria of cells. The amount of formazan produced is used to detect the number of viable cells and calculate the survival rates.
The U937 cells were cultivated in RPMI 1640 medium supplemented with 10% fetal bovine serum, 10 U/ml of Penicillin and 100 μg/ml of Streptomycin at 37° C., 5% CO2 for 24 hours. […] The absorbances were measured at 570 nm with an ELISA Reader to determine the survival rates.

COC1=C(OC)C(O)C(C/C=C(\C)CC/C=C(\C)CCC=C(C)C)C(C)C1=O (stereo not shown) [formula 2, 4-hydroxy-2,3-dimethoxy-6-methyl-5-(3,7,11-trimethyl-dodeca-2,6,10-trienyl)-cyclohex-2-enone]
IC50: 9.71 mg/L
